US12448388B2, “PRMT5 inhibitors and uses thereof” (Gilead Sciences, Inc., priority 2023, dated 2025)
Like-named read-outs stand apart in the source and are kept apart here.

Experiments:
[1] = tested on: HCT116 MTAP-deleted cell lines; experiment: Cell viability assay (CellTiter-Glo, 7 days), HCT116 MTAP-deleted; format: cell-based; settings: Homo sapiens, HCT-116, HCT116 MTAP-deleted, class symbols, read-out: CC50
Summary of the method: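 Dose-response, PRMT5 inhibitors from DMSO serial dilution, pre-spotted; cells seeded onto compound plates. 7 d, 37 °C/5% CO2/90% RH. Readout: CTG luminescence → CC50.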

[2] = tested on: Symmetric Di-methyl Arginine (SDMA) signal (PRMT5 inhibition) in HCT116 MTAP-deleted cells; experiment: Symmetric di-methyl arginine image-based high content screen assay (SDMA assay), HCT116 MTAP-deleted; format: cell-based; settings: for EC50: Homo sapiens, HCT-116, HCT116 MTAP-deleted, class symbols
Summary of the method: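 Read-out is imaging of per-cell mean SDMA immunofluorescence (Alexa 488), with cells segmented by DAPI. Cells, MTAP-deleted or wild-type HCT116, were exposed to compound for 3 days at 37 °C before fixation. EC50 derived by 4-parameter non-linear logistic regression.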

[3] = HCT116 WT vs HCT116 MTAP-deleted
[4] = HCT116 WT versus HCT116 MTAP-deleted

Row | SMILES | CC50 ([1]; cell viability assay) | EC50 selectivity [2, 3] | EC50 [2] | CC50 ([1]; cell viability) | EC50 selectivity [2, 4]
1 | Cc1ncc2c3cc(C(=O)N(Cc4ccc(C(F)(F)F)cn4)[C@H](C)c4ncccn4)ccc3nc(N)n12 [Fg-5, (R)-5-amino-3-methyl-N-(1-(pyrimidin-2-yl)ethyl)-N-((5-(trifluoromethyl)pyridin-2-yl)methyl)imidazo[1,5-c]quinazoline-9-carboxamide] | < 100 nM | 19 | 1 to 5 nM | – | –
2 | CC(=O)N(C)N(Cc1ccc(Cl)cc1C#N)C(=O)c1ccc2nc(N)c3c(C)ncn3c2c1 [Fa-6, N′-acetyl-4-amino-N-(4-chloro-2-cyanobenzyl)-N′,3-dimethylimidazo[1,5-a]quinoxaline-8-carbohydrazide] | – | – | 1 to 5 nM | < 100 nM | 129
3 | C[C@H]1CN(C(=O)c2cc3c(cc2F)nc(N)c2cncn23)[C@H]2c3ccc(C(F)(F)C(F)(F)F)cc3C[C@H]2O1 [Fg-38, (4-amino-7-fluoroimidazo[1,5-a]quinoxalin-8-yl)((2S,4aS,9aR)-2-methyl-7-(perfluoroethyl)-2,3,9,9a-tetrahydroindeno[2,1-b][1,4]oxazin-4(4aH)-yl)methanone] | < 100 nM | 31 | 1 to 5 nM | – | –
4 | Cn1cc(N(Cc2ccc(C(F)(F)F)cc2F)C(=O)c2ccc3nc(N)c4cncn4c3c2)cn1 [Ff-278, 4-amino-N-(2-fluoro-4-(trifluoromethyl)benzyl)-N-(1-methyl-1H-pyrazol-4-yl)imidazo[1,5-a]quinoxaline-8-carboxamide] | – | – | 1 to 5 nM | < 100 nM | 47
5 | Cc1ncc2c(N)nc3ccc(C(=O)N4C[C@@H](F)C[C@@H]5Oc6cc(C(F)(F)F)ccc6[C@@H]54)cc3n12 [Ff-660, (4-amino-1-methylimidazo[1,5-a]quinoxalin-8-yl)((3S,4aS,9bS)-3-fluoro-7-(trifluoromethyl)-3,4,4a,9b-tetrahydrobenzofuro[3,2-b]pyridin-1(2H)-yl)methanone] | < 100 nM | 122 | ≤ 1 nM | – | –
6 | Nc1nc2cc(F)c(C(=O)N(Cc3ccc(Cl)cc3F)C34CC(C3)C4)cc2n2cncc12 [Ff-6, 4-amino-N-(bicyclo[1.1.1]pentan-1-yl)-N-(4-chloro-2-fluorobenzyl)-7-fluoroimidazo[1,5-a]quinoxaline-8-carboxamide] | – | – | > 5 nM | 100 to 1000 nM | 71
7 | CN(C(=O)c1cc2c(cc1F)nc(N)c1cncn12)[C@@H]1COc2cc(F)ccc21 [Ff-568, (S)-4-amino-N-(6-fluoro-2,3-dihydrobenzofuran-3-yl)-7-fluoro-N-methylimidazo[1,5-a]quinoxaline-8-carboxamide] | 100 to 1000 nM | 457 | > 5 nM | – | –
8 | Cc1nc(C)n2c1c(N)nc1ccc(C(=O)N(C)[C@@H]3COCc4cc(Br)ccc43)cc12 [Fg-14, (S)-4-amino-N-(7-bromoisochroman-4-yl)-N,1,3-trimethylimidazo[1,5-a]quinoxaline-8-carboxamide] | 100 to 1000 nM | 158 | 1 to 5 nM | – | –
9 | C[C@H](c1ncccn1)N(Cc1ccc(C(F)(F)F)cn1)C(=O)c1ccc2nc(N)n3cncc3c2c1 [Fg-1, (R)-5-amino-N-(1-(pyrimidin-2-yl)ethyl)-N-((5-(trifluoromethyl)pyridin-2-yl)methyl)imidazo[1,5-c]quinazoline-9-carboxamide] | 100 to 1000 nM | 50 | 1 to 5 nM | – | –
10 | CN(C(=O)c1cc2c(cc1F)nc(N)c1cncn12)C1CCc2nc(C(F)(F)F)ccc21 (stereo not drawn) [Ff-13, 4-amino-7-fluoro-N-methyl-N-(2-(trifluoromethyl)-6,7-dihydro-5H-cyclopenta[b]pyridin-5-yl)imidazo[1,5-a]quinoxaline-8-carboxamide] | – | – | ≤ 1 nM | < 100 nM | 176
11 | C[C@H](c1ncccn1)N(Cc1ccc(C(F)(F)F)cn1)C(=O)c1cc2c(cc1Cl)nc(N)n1cncc21 [Fg-3, (R)-5-amino-8-chloro-N-(1-(pyrimidin-2-yl)ethyl)-N-((5-(trifluoromethyl)pyridin-2-yl)methyl)imidazo[1,5-c]quinazoline-9-carboxamide] | 100 to 1000 nM | 16 | > 5 nM | – | –
12 | C[C@H]1CN(C(=O)c2cc3c(cc2F)nc(N)c2cncn23)[C@H]2c3cc(F)c(C4CC4)cc3C[C@H]2O1 [Ff-201, (4-amino-7-fluoroimidazo[1,5-a]quinoxalin-8-yl)((2S,4aS,9aR)-7-cyclopropyl-6-fluoro-2-methyl-2,3,9,9a-tetrahydroindeno[2,1-b][1,4]oxazin-4(4aH)-yl)methanone] | – | – | 1 to 5 nM | < 100 nM | 58
13 | Nc1nc2cc(F)c(C(=O)N3CCC[C@H]4OCc5cc(OC(F)F)ccc5[C@H]43)cc2n2cncc12 (single isomer, unassigned) [Ff-391] | < 100 nM | 26 | 1 to 5 nM | – | –
14 | COc1ccc2c(c1)CO[C@H]1CCCN(C(=O)c3cc4c(cc3F)nc(N)c3cncn34)[C@@H]21 (racemic) [Ff-44, Rac-(4-amino-7-fluoroimidazo[1,5-a]quinoxalin-8-yl)((cis)-8-methoxy-2,3,4,4a,6,10b-hexahydro-1H-isochromeno[4,3-b]pyridin-1-yl)methanone] | – | – | 1 to 5 nM | < 100 nM | 73
15 | C[C@@H]1C[C@@H]2Cc3nc(C(F)(F)F)ccc3[C@@H]2N(C(=O)c2cc3c(cc2F)nc(N)c2cncn23)C1 (racemic) [Ff-321, Rac-(4-amino-7-fluoroimidazo[1,5-a]quinoxalin-8-yl)((4bR,7R,8aR)-7-methyl-2-(trifluoromethyl)-4b,6,7,8,8a,9-hexahydro-5H-cyclopenta[1,2-b:3,4-b′]dipyridin-5-yl)methanone] | – | – | 1 to 5 nM | < 100 nM | 67
16 | CN(C(=O)c1cc2c(cc1F)nc(N)c1cncn12)[C@@H]1COCc2cc(-c3cnn(C(F)(F)F)c3)ccc21 [Ff-279, (S)-4-amino-7-fluoro-N-methyl-N-(7-(1-(trifluoromethyl)-1H-pyrazol-4-yl)isochroman-4-yl)imidazo[1,5-a]quinoxaline-8-carboxamide] | – | – | ≤ 1 nM | < 100 nM | 60
17 | CN(Cc1ccc(Cl)cc1C#N)C(=O)c1cc2c(cc1F)nc(N)c1cncn12 [Ff-32, 4-amino-N-(4-chloro-2-cyanobenzyl)-7-fluoro-N-methylimidazo[1,5-a]quinoxaline-8-carboxamide] | – | – | 1 to 5 nM | 100 to 1000 nM | 346
18 | Nc1nc2cc(F)c(C(=O)N3CCCC4OCc5nc(C(F)(F)F)ccc5[C@@H]43)cc2n2cncc12 (mixture of isomers) [Ff-319, Rac-(4-amino-7-fluoroimidazo[1,5-a]quinoxalin-8-yl)((4aS,10bS)-8-(trifluoromethyl)-2,3,4,4a,6,10b-hexahydro-1H-pyrano[3,2-b:5,4-b′]dipyridin-1-yl)methanone] | – | – | 1 to 5 nM | < 100 nM | 42
19 | Nc1nc2ccc(C(=O)N(Cc3ccc(C(F)(F)F)cn3)N3CCOCC3)cc2c2cncn12 [Fa-3, 5-amino-N-morpholino-N-((5-(trifluoromethyl)pyridin-2-yl)methyl)imidazo[1,5-c]quinazoline-9-carboxamide] | – | – | > 5 nM | > 1000 nM | 22
20 | CN(C(=O)c1cc2c(cc1Br)nc(N)c1cncn12)[C@@H]1COc2cc(C(F)(F)F)ccc21 [Fg-48, (S)-4-amino-7-bromo-N-methyl-N-(6-(trifluoromethyl)-2,3-dihydrobenzofuran-3-yl)imidazo[1,5-a]quinoxaline-8-carboxamide] | < 100 nM | 94 | ≤ 1 nM | – | –
21 | Nc1nc2cc(F)c(C(=O)N3CCC[C@@H]4Oc5cc(S(F)(F)(F)(F)F)ccc5[C@@H]43)cc2n2cncc12 [Ff-663, (4-amino-7-fluoroimidazo[1,5-a]quinoxalin-8-yl)((4aS,9bS)-7-(pentafluoro-16-sulfaneyl)-3,4,4a,9b-tetrahydrobenzofuro[3,2-b]pyridin-1(2H)-yl)methanone] | < 100 nM | 23 | ≤ 1 nM | – | –
22 | Cc1ncc2c(N)nc3ccc(C(=O)N(C)[C@@H]4COc5cc(C#CC6CCCO6)ccc54)cc3n12 (stereo partly drawn) [Ff-17, 4-amino-N,1-dimethyl-N-((3S)-6-((tetrahydrofuran-2-yl)ethynyl)-2,3-dihydrobenzofuran-3-yl)imidazo[1,5-a]quinoxaline-8-carboxamide] | – | – | 1 to 5 nM | 100 to 1000 nM | 253
23 | CN(C(=O)c1cc2c(cc1F)nc(N)c1cncn12)[C@@H]1CC2(CC2)c2cc(C(F)(F)F)ccc21 [Ff-58, (R)-4-amino-7-fluoro-N-methyl-N-(6′-(trifluoromethyl)-2′,3′-dihydrospiro[cyclopropane-1,1′-inden]-3′-yl)imidazo[1,5-a]quinoxaline-8-carboxamide] | – | – | 1 to 5 nM | < 100 nM | 166
24 | C[C@@H]1C[C@@H]2Oc3cc(OC(F)(F)F)ccc3[C@@H]2N(C(=O)c2ccc3nc(N)c4cncn4c3c2)C1 [Ff-616, (4-aminoimidazo[1,5-a]quinoxalin-8-yl)((3R,4aS,9bS)-3-methyl-7-(trifluoromethoxy)-3,4,4a,9b-tetrahydrobenzofuro[3,2-b]pyridin-1(2H)-yl)methanone] | < 100 nM | 162 | ≤ 1 nM | – | –
